Patent publication US7582778B2, “Podophyllotoxin” (Universitatsklinikum Charite der Humboldt-Universitat zu, priority 2001, dated 2009)
Where two headings read alike, the source gives them in different places.

Tests used:
[1] = test system: Hamms human colon carcinoma cells; assay: XTT cytotoxicity assay, Hamms; format: cell-based
Procedure: (§4) Cytotoxicity assay: Cytotoxicity was determined by the XTT tetrazolium/formazan assay as previously described (Scudiero D A, Shoemaker R H, Paull K D, et al. Evaluation of a soluble tetrazolium/formazan assay for cell growth and drug sensitivity in culture using human and other tumor cell lines. Cancer Res. 1988; 48:4827-4833.). Briefly, cells were seeded in 96 flat bottom well plates at a density of 10^4/well in 100 μl media and exposed to drug concentrations ranging from 10^−4 to 10^−12 M. At the indicated time points (6-72 hr), cell viability was assessed by adding 50 μl XTT-reagent (1 mg/ml in serum free RPMI) activated with 0.2% v/v PMS (1.53 mg/ml in PBS) incubated at 37° C. for 4 h. Plates were analyzed in a Thermomax (Molecular Devices) micro plate reader at 450 nm. OD values were plotted as a function of drug concentration and the curves were integrated using the softmax software to obtain the IC50 concentration values.

[2] = Water solubility; format: physicochemical; conditions: compared with ProVP-16 I
[3] = test system: Molt-3 parental cells; assay: Cell cycle analysis (propidium iodide, FACS), Molt-3; format: cell-based, human; conditions: Molt-3 cells, 0.5 μM, up to 72 h
Procedure: (§1) Cells were harvested at indicated time points (n=3), fixed, stained with propidium iodide and analyzed by FACS as described in Materials and Methods. Per cent cells in pre G1 (apoptosic cells) were calculated from DNA histograms.
(§2) Cell cycle analysis: Distinct phases of the cell cycle were determined in a standard assay using propidium iodide. […] At indicated time points, cells were harvested and fixed in 4.5 ml ethanol (75%, −20° C.) for at least 12 h (4° C.). Cells were washed in PBS (pH 7.4) and resuspended in 250 μl PBS containing RNAse (0.3 mg/ml) and propidium iodide (50 μg/ml) and incubated in the dark (30 min, RT). The DNA histograms defining distinct phases of the cell cycle were subsequently determined in duplicates by FACS analysis and average results were expressed as per cent.

[4] = test system: NXS2 murine neuroblastoma; assay: XTT cytotoxicity assay, NXS2; format: cell-based
Procedure: (§3) The cytotoxic effect of ProVP-16 I and II was evaluated against a panel of cell lines by triplicate determinations of IC50 concentrations for both prodrugs against each cell line (A). […] Bars represent mean values ±SD.

[5] = test system: porcine liver carboxyl ester hydrolase
[6] = test system: CHO Chinese hamster ovary; assay: XTT cytotoxicity assay, CHO; format: cell-based
Procedure: as §4

[7] = test system: multidrug resistant MOVP-3 cells; assay: XTT cytotoxicity assay, multidrug resistant MOVP-3 subline; format: cell-based, human; conditions: for IC50: MOVP-3 cells; for cross resistance of MOVP-3 cells: from IC50 values MOVP-3 vs Molt-3
Procedure: MDR-1 gene expression was determined by RT-PCR analysis on total RNA isolated from MOVP-3 and Molt-3 cells, respectively (6A). Expression of GAPDH was used as a control for the integrity of the cDNA. […] (6C) Cross-resistance of MOVP-3 cells against MDR-1 drugs (doxorubicin, melphalan, vinblastine and paclitaxel) was calculated from IC50 values (n=3) as described in 6B).
Cells: Tumor cell lines were grown in RPMI, 10% FCS (Nalm-6, Reh, Molt-3, Jurkat, HL-60, K562, HeLa, CEM, A2780, SW480) or DMEM, 10% FCS (NXS2, SK-N-SH, HT-29) in the presence of 100 IU/ml penicillin/streptomycin (P/S) and propagated under standard tissue culture conditions (5% CO2, 37° C.). All cell lines were obtained from ATCC, Rockville, Md. except NXS2 which was previously described (Lode H N, Xiang R, Varki N M, Dolman C S, Gillies S D, Reisfeld R A. Targeted interleukin-2 therapy for spontaneous neuroblastoma metastases to bone marrow. Journal of the National Cancer Institute. 1997; 89:1586-1594.) and VCR100, ADR5000 and A2780 which were kindly provided by James Beck, Greifswald, Germany (Beck J, Handgretinger R, Dopfer R, Klingebiel T, Niethammer D, Gekeler V. Expression of mdrl, mrp, topoisomerase II alpha/beta, and cyclin A in primary or relapsed states of acute lymphoblastic leukaemias. Br J Haematol. 1995; 89:356-363; Beck J F, Bohnet B, Brugger D, et al. Expression analysis of protein kinase C isozymes and multidrug resistance associated genes in ovarian cancer cells. Anticancer Res. 1998; 18:701-705.).

[8] = for kobs: PBS buffer
Procedure: ProVP-16 I was incubated in THF/2% HCl and samples were periodically analyzed by HPLC at the indicated time points (A). Hydrolytic activation of ProVP-16 II was determined in phosphate buffered saline (PBS) a t the pH levels indicated (B). ProVP-16 I (3 mM) was incubated in PBS solutions and samples were periodically analyzed by HPLC. The percent conversion was calculated from areas under the curve determined by peak integration.

[9] = human serum, pH 7.3, 37° C.
[10] = test system: Molt-3 T-cell leukemia; assay: XTT cytotoxicity assay, Molt-3; conditions: for cytotoxic effects at early incubation: Molt-3, up to 12 h of incubation
Procedure: as §3
At the time points indicated, cell viability was determined in triplicate by the XTT assay as described in Materials and Methods. […] Results were plotted as a semilogarithmic function of drug concentration.

[11] = test system: Molt-3/MDR-1 cells; conditions: stable transfection with pMDR-IRESpuro
Procedure: Stable transfection of MDR-1: The MDR-1 cDNA was kindly provided in a pUC based plasmid by C. Baum, University of Hamburg. For mammalian expression, the MDR-1 cDNA was cloned into the bicistronic eukaryotic expression plasmid pIRESpuro using NotI and BamHI restriction sites. pMDR-IRESpuro was transfected into Molt-3 cells by electroporation (960 μF, 250V). Stable transfectants were selected with 300 ng/ml puromycin.
OD values were plotted as a function of drug concentration and the curves were integrated using the softmax software to obtain the IC50 concentration values.

[12] = test system: MOVP-3 cells; assay: Cell cycle analysis (propidium iodide, FACS), MOVP-3; format: cell-based, human; conditions: 0.5 μM, up to 72 h
Procedure: as §1, §2

[13] = for maximum tolerated dose: defined by a decrease in body weight <20%
Procedure: The body weight was determined for each animal over time and calculated as per cent of total weight observed on day 0. An event as indicated by Kaplan Maier plots is defined by loss of body weight greater than 20%.
Body weights and survival were monitored over time.

[14] = test system: MOVP-3 primary tumors; assay: Anti-tumor effect in a multidrug resistant T-cell leukemia xenograft model; format: in vivo, SCID mice; conditions: for anti-tumor response / transient average weight loss: 15 mg/kg i.p.
Procedure: The anti-tumor effect of ProVP-16 II therapy was determined in a multidrug resistant xenograft model (B,C). SCID mice (n=7) were injected s.c. with 5×10^6 MOVP-3 cells and primary tumors of 250 mm^3 average size were established 55 days after inoculation. […] Tumor growth was monitored by microcaliper measurements and tumor size was calculated as described in Materials and Methods (B). […] The body weight of treated animals was determined over time and calculated as per cent of body weight on day 57 (C).
Anti-tumor effect in a T-cell leukemia xenograft model: Primary tumors were induced by injection of 5×10^6 MOVP 3 cells in 100 μl PBS (pH 7.4) into the skin of the left lateral flank of each SCID mouse. Established primary tumors were palpable 55 days after injection. […] Each mouse received a total of 7 injections on days 55,57,59,69,71,87,90 after tumor cell inoculation. Primary tumor size was determined over time by micro caliper measurements and volumes were calculated according to ½×with^2×length. Body weight was determined on a standard digital scale.

[15] = test system: SW480 colon carcinoma; conditions: SW480, vs VP-16
Procedure: as §3

[16] = Conversion of ProVP-16 I to ProVP-16 II under acid conditions (HPLC); format: physicochemical; conditions: acid conditions (THF, 2N HCL)
Procedure: ProVP-16 I was incubated in THF/2% HCl and samples were periodically analyzed by HPLC at the indicated time points (A). […] ProVP-16 I (3 mM) was incubated in PBS solutions and samples were periodically analyzed by HPLC. The percent conversion was calculated from areas under the curve determined by peak integration.

[17] = target: MDR-1 p-glycoprotein (Homo sapiens, UniProt P08183); conditions: MOVP-3 cells; for effect on the decrease in FL-1 signal (JC-1 efflux): coincubation with 3×10^−4 M
Procedure: Samples incubated with 2 μM cyclosporin A were used as positive controls (data not shown). Cell fluorescence was recorded using a FAC Sort flow cytometer (Becton Dickinson) and JC-1 signals were detected on the FL1-channel (530 nm filter) for analysis of the dye monomer.

[18] = porcine liver carboxyl ester hydrolase, pH 7.3, 37° C.
[19] = Molt-3 cells, resistance experiment (FIG. 4B)
[20] = Molt-3, time course, 48-72 h after incubation

MDR-1 p-glycoprotein, sequence (P08183 whole entry): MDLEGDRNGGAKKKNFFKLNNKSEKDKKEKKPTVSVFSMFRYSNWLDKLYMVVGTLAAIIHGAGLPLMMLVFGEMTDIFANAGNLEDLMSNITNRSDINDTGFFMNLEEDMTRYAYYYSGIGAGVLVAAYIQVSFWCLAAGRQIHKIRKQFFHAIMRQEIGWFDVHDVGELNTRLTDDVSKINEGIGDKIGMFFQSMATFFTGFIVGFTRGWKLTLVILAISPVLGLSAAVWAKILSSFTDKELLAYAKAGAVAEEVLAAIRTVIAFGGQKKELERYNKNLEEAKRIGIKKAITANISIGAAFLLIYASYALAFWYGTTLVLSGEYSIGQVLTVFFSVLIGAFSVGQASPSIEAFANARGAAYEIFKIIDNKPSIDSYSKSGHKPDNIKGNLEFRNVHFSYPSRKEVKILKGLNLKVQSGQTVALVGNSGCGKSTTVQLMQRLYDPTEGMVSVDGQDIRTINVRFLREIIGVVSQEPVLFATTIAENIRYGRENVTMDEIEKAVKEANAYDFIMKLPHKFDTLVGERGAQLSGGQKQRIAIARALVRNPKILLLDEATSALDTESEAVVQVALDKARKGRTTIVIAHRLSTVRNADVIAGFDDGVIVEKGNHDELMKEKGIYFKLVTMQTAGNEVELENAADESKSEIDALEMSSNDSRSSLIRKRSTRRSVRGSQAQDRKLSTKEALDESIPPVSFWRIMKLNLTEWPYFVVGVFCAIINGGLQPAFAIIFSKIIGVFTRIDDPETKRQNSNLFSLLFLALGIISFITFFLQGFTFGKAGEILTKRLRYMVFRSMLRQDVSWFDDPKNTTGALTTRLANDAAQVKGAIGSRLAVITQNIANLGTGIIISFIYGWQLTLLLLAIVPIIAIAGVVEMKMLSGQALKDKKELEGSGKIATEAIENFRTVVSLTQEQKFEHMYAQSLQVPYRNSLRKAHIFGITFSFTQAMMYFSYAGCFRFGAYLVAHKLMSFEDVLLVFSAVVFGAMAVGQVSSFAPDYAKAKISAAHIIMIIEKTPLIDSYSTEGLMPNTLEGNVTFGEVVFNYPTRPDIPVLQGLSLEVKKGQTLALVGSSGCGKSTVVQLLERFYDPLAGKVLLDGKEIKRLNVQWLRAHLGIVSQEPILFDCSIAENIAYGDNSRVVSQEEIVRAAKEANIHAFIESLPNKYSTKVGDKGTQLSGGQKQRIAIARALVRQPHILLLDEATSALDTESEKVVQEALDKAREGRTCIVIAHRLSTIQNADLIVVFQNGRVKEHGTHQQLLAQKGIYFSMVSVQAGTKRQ

Structure (SMILES): COc1cc(C2c3cc4c(cc3C(OC3OC5COC(C)OC5C(O)C3O)C3COC(=O)C23)OCO4)cc(OC)c1OC(=O)OCC(O)CO (centres unmarked) [ProVP-16 II]
- response to proetoposides compared with etoposide [1]: responded equally well
- water solubility [2]: higher water solubility
- induction of apoptosis (pre-G1 peak) [3]: Induction of apoptosis was also demonstrated
- response to proetoposides compared with etoposide [4]: responded equally well
- kobs ([5]; pH 7.3): 1.348 ± 0.081 10^−3-min^−1
- t1/2 [5, 18]: 514.1 min
- response to proetoposides compared with etoposide [6]: responded equally well
- resistance of MOVP-3 cells (IC50 MOVP-3÷IC50 Molt-3) [7]: no significant difference
- IC50 [7]: 20 nM
- kobs ([8]; pH 5.0-7.3, 37° C.): no conversion
- kobs ([8]; pH 8.0, 37° C.): 3.201 ± 0.428 10^−3-min^−1
- kobs ([8]; pH 8.8, 37° C.): 7.142 ± 0.351 10^−3-min^−1
- kobs ([8]; pH 10.5, 37° C.): 100.01 ± 12.72 10^−3-min^−1
- conversion rate ([8]; pH 7.4): < 5%
- t1/2 ([9]; listed as ProPV-16 II): 56.1 min
- t1/2 ([9]; listed as Prodrug II): 56.07 min
- cytotoxic effects at early incubation [10]: absence of cytotoxic effects
- IC50 [10, 19]: 20 nM
- sensitivity / resistance of Molt-3/MDR-1 cells [11]: remained fully sensitive
- induction of apoptosis (pre-G1 peak) [12]: very effective in inducing a steady increase in the pre-G1 peak
- survival / tolerability ([13]; 20 mg/kg i.p.): well tolerated with no death
- survival / tolerability ([13]; 60 mg/kg i.p.): well tolerated with no death
- maximum tolerated dose [13]: 60 mg/kg
- decrease of systemic toxicity by the prodrug design, factor ([13]; mouse, in vivo): ≥ 3
- increase in the maximum tolerated dose over the parental compound ([13]; vs VP-16): greater than 3 fold
- anti-tumor response [14]: dramatic reduction in primary tumor growth
- transient average weight loss [14]: no measurable weight loss
- time the regression was stable ([14]; 45 mg/kg i.p.): over 2 months
- transient weight loss ([14]; 45 mg/kg i.p.): 6%
- animals with regression of established primary tumors ([14]; 45 mg/kg i.p., 10 days after initiation of treatment): 7/7
- IC50 fold lower than parent compound [15]: 1000 fold

Structure (SMILES): COc1cc(C2c3cc4c(cc3C(OC3OC5COC(C)OC5C(O)C3O)C3COC(=O)C23)OCO4)cc(OC)c1OC(=O)OCC1COC(C)(C)O1 (centres unmarked) [ProVP-16 I]
- response to proetoposides compared with etoposide [1]: responded equally well
- degradation of the glycoside moiety [16]: about 10%
- time for conversion to ProVP-16 II [16]: ≤ 2 h
- induction of apoptosis (pre-G1 peak) [3]: Induction of apoptosis was also demonstrated
- response to proetoposides compared with etoposide [4]: responded equally well
- kobs [5, 18]: 48.89 ± 3.62 10^−3-min^−1
- t1/2 [5, 18]: 14.2 min
- t1/2 ([5]; porcine liver carboxyl ester hydrolase, pH 7.3, 37° C., listed as Prodrug I): 14.17 min
- response to proetoposides compared with etoposide [6]: responded equally well
- IC50 [7]: 20 nM
- resistance of MOVP-3 cells (IC50 MOVP-3÷IC50 Molt-3) ([7]; MOVP-3 vs Molt-3): no significant difference
- conversion in PBS ([8]; PBS (pH 7.4, 37° C.)): no measurable conversion
- kobs ([8]; pH 5.0-10.0, 37° C.): no conversion
- kobs ([8]; pH 11.8, 37° C.): 8.333 ± 0.50 10^−3-min^−1
- stability under basic buffer conditions ([8]; basic buffer conditions (pH <10.0)): inert
- kobs [9]: 0.923 ± 0.046 10^−3-min^−1
- t1/2 [9]: 750.8 min
- effect on the decrease in FL-1 signal (JC-1 efflux) [17]: abrogated
- lowest concentration inhibiting MDR-1 mediated efflux ([17]; data not shown): 10 µM
- IC50 [10, 20]: 10 nM
- onset of cytotoxic activity ([10]; Molt-3, time of incubation): > 24 h
- cytotoxic effects at early incubation [10]: absence of cytotoxic effects
- IC50 [10, 19]: 20 nM
- sensitivity / resistance of Molt-3/MDR-1 cells [11]: remained fully sensitive
- induction of apoptosis (pre-G1 peak) [12]: very effective in inducing a steady increase in the pre-G1 peak
- IC50 fold lower than parent compound [15]: 1000 fold

Structure (SMILES): COc1cc([C@@H]2c3cc4c(cc3[C@@H](O[C@@H]3O[C@@H]5CO[C@@H](C)O[C@H]5[C@H](O)[C@H]3O)[C@H]3COC(=O)[C@H]23)OCO4)cc(OC)c1O [VP-16, etoposide, reference compound]
- induction of apoptosis (pre-G1 peak) [3]: induce apoptosis in Molt-3 cells to a similar extent as ProVP-16 I and II
- IC50 [7]: 2000 nM
- resistance in vitro ([7]; MOVP-3 model with stably amplified MDR-1): 100 ×
- cross resistance of MOVP-3 cells [7]: cross resistance
- effect on the decrease in FL-1 signal (JC-1 efflux) [17]: ineffective in modulating MDR-1 function
- IC50 [10, 20]: 65 nM
- IC50 [10, 19]: 20 nM
- sensitivity / resistance of Molt-3/MDR-1 cells [11]: resistance
- induction of apoptosis (pre-G1 peak) [12]: ineffective to induce apoptosis
- maximum tolerated dose [13]: 20 mg/kg
- mice with a weight loss >20% ([13]; mouse, in vivo): 5/6
- anti-tumor response [14]: no anti-tumor response
- transient average weight loss [14]: 20%

Structure (SMILES): COc1cccc2c1C(=O)c1c(O)c3c(c(O)c1C2=O)C[C@@](O)(C(=O)CO)C[C@@H]3O[C@H]1C[C@H](N)[C@H](O)[C@H](C)O1 [doxorubicin]
- cross resistance of MOVP-3 cells [7]: cross resistance
- sensitivity / resistance of Molt-3/MDR-1 cells [11]: resistance

Structure (SMILES): N[C@@H](Cc1ccc(N(CCCl)CCCl)cc1)C(=O)O [melphalan]
- cross resistance of MOVP-3 cells [7]: statistically significant

Structure (SMILES): CC(=O)O[C@H]1C(=O)[C@@]2(C)[C@H]([C@H](OC(=O)c3ccccc3)[C@]3(O)C[C@H](OC(=O)[C@H](O)[C@@H](NC(=O)c4ccccc4)c4ccccc4)C(C)=C1C3(C)C)[C@]1(OC(C)=O)CO[C@@H]1C[C@@H]2O [paclitaxel]
- cross resistance of MOVP-3 cells [7]: cross resistance
- sensitivity / resistance of Molt-3/MDR-1 cells [11]: resistance

Structure (SMILES): CC[C@]1(O)C[C@@H]2CN(CCc3c([nH]c4ccccc34)[C@@](C(=O)OC)(c3cc4c(cc3OC)N(C)[C@H]3[C@@](O)(C(=O)OC)[C@H](OC(C)=O)[C@]5(CC)C=CCN6CC[C@]43[C@@H]65)C2)C1 [vinblastine]
- cross resistance of MOVP-3 cells [7]: cross resistance
- sensitivity / resistance of Molt-3/MDR-1 cells [11]: resistance
